Test results taken from ChEMBL document CHEMBL1697781, “Assessment of the health effects of chemicals in humans: II. Construction of an adverse effects database for QSAR modeling” (Curr Drug Discov Technol, 2004).

Assays:
Conditions in all cases: human; call rule not given here
Hepatotoxicity [1] = experiment: FDA HLAED, liver enzyme composite activity
Hepatotoxicity [2] = experiment: FDA HLAED, alkaline phosphatase increase
Hepatotoxicity [3] = experiment: FDA HLAED, serum glutamic oxaloacetic transaminase (SGOT) increase
Hepatotoxicity [4] = experiment: FDA HLAED, serum glutamic pyruvic transaminase (SGPT) increase
Hepatotoxicity [5] = experiment: FDA HLAED, lactate dehydrogenase (LDH) increase
Hepatotoxicity [6] = experiment: FDA HLAED, gamma-glutamyl transferase (GGT) increase
Throughout, for GGT Increase - Index Value: reference of the scale not given here.
Throughout, for LDH Increase - Index Value: reference of the scale not given here.

Row | Compound | Composite Activity - Active (Hepatotoxicity [1]) | Composite Activity - Marginal (Hepatotoxicity [1]) | Composite Activity - Score (Hepatotoxicity [1]) | Alkaline Phosphatase Increase - Activity Score (Hepatotoxicity [2]) | Alkaline Phosphatase Increase - Index Value (Hepatotoxicity [2]) | Alkaline Phosphatase Increase - Number of Reports (Hepatotoxicity [2]) | SGOT Increase - Activity Score (Hepatotoxicity [3]) | SGOT Increase - Index Value (Hepatotoxicity [3]) | SGOT Increase - Number of Reports (Hepatotoxicity [3]) | SGPT Increase - Activity Score (Hepatotoxicity [4]) | SGPT Increase - Index Value (Hepatotoxicity [4]) | SGPT Increase - Number of Reports (Hepatotoxicity [4]) | LDH Increase - Activity Score (Hepatotoxicity [5]) | LDH Increase - Index Value (Hepatotoxicity [5]) | LDH Increase - Number of Reports (Hepatotoxicity [5]) | GGT Increase - Activity Score (Hepatotoxicity [6]) | GGT Increase - Index Value (Hepatotoxicity [6]) | GGT Increase - Number of Reports (Hepatotoxicity [6])
1 | CCC1=C(C)CN(C(=O)NCCc2ccc(S(=O)(=O)NC(=O)N[C@H]3CC[C@H](C)CC3)cc2)C1=O [GLIMEPIRIDE] | 0 | 0 | Inactive | Inactive | 1.2 | < 4 | Inactive | 1.2 | < 4 | Inactive | 1.2 | < 4 | Inactive | 0 | < 4 | Inactive | 1.2 | < 4
2 | COc1ccc(Cl)cc1C(=O)NCCc1ccc(S(=O)(=O)NC(=O)NC2CCCCC2)cc1 [GLYBURIDE] | 0 | 1 | Inactive | Marginally Active | 3.4 | >= 4 | Inactive | 1.8 | >= 4 | Inactive | 2.2 | >= 4 | Inactive | 0.8 | >= 4 | Inactive | 0 | < 4
3 | CN1C2CCCC1CC(NC(=O)c1nn(C)c3ccccc13)C2 (stereo unspecified) [GRANISETRON] | 0 | 0 | Inactive | Inactive | 1 | >= 4 | Inactive | 0.6 | < 4 | Inactive | 0.6 | < 4 | Inactive | 0.2 | < 4 | Inactive | 0.2 | < 4
4 | N=C(N)N/N=C/c1c(Cl)cccc1Cl [GUANABENZ] | 0 | 0 | Inactive | Inactive | 0 | < 4 | Inactive | 0.9 | < 4 | Inactive | 0.6 | < 4 | Inactive | 0.3 | < 4 | Inactive | 0 | < 4
5 | N=C(N)NC(=O)Cc1c(Cl)cccc1Cl [GUANFACINE] | 0 | 0 | Inactive | Inactive | 1 | < 4 | Inactive | 1.3 | >= 4 | Inactive | 0.3 | < 4 | Inactive | 0.6 | < 4 | Inactive | 0 | < 4
6 | O=C1CN=C(c2ccccc2)c2cc(Cl)ccc2N1CC(F)(F)F [HALAZEPAM] | 0 | 0 | Inactive | Inactive | 0 | < 4 | Inactive | 0 | < 4 | Inactive | 0 | < 4 | Inactive | 0 | < 4 | Inactive | 0 | < 4
7 | C[C@H]1C[C@H]2[C@@H]3C[C@H](F)C4=CC(=O)C=C[C@]4(C)[C@@]3(F)[C@@H](O)C[C@]2(C)[C@@]1(O)C(=O)CCl [HALOBETASOL] | 0 | 0 | Inactive | Inactive | 0 | < 4 | Inactive | 0 | < 4 | Inactive | 0 | < 4 | Inactive | 0 | < 4 | Inactive | 0 | < 4
8 | CN1CC[C@]23c4c5ccc(O)c4O[C@H]2C(=O)CC[C@H]3[C@H]1C5 [HYDROMORPHONE] | 0 | 0 | Inactive | Inactive | 0 | < 4 | Inactive | 0 | < 4 | Inactive | 0 | < 4 | Inactive | 0 | < 4 | Inactive | 0 | < 4
9 | CCCCCCCN(CC)CCCC(O)c1ccc(NS(C)(=O)=O)cc1 (stereo unspecified) [IBUTILIDE] | 0 | 0 | Inactive | Inactive | 0 | < 4 | Inactive | 0 | < 4 | Inactive | 0 | < 4 | Inactive | 0 | < 4 | Inactive | 0 | < 4
10 | CC(=O)[C@]1(O)Cc2c(O)c3c(c(O)c2[C@@H](O[C@H]2C[C@H](N)[C@H](O)[C@H](C)O2)C1)C(=O)c1ccccc1C3=O [IDARUBICIN] | 0 | 0 | Inactive | Inactive | 0 | < 4 | Inactive | 0 | < 4 | Inactive | 0 | < 4 | Inactive | 0 | < 4 | Inactive | 0 | < 4
11 | O=P1(NCCCl)OCCCN1CCCl (stereo unspecified) [IFOSFAMIDE] | 1 | 0 | Inactive | Inactive | 5 | < 4 | Active | 17.5 | >= 4 | Inactive | 7.5 | < 4 | Inactive | 7.5 | < 4 | Inactive | 0 | < 4
12 | Nc1cc(-c2ccncc2)c[nH]c1=O [INAMRINONE] | 0 | 0 | Inactive | Inactive | 2.2 | < 4 | Inactive | 6.6 | < 4 | Inactive | 4.4 | < 4 | Inactive | 2.2 | < 4 | Inactive | 0 | < 4
